According to ChEMBL document CHEMBL4715898, “Synthesis and structure-activity relationships of pyrimidine derivatives as potent and orally active FGFR3 inhibitors with both increased systemic exposure and enhanced in vitro potency” (Bioorg Med Chem, 2021):
≈ marks a conversion by molar mass, not a printed value.

Test: not given
Settings: mouse, in vivo, po, 30 mg/kg, 0.75 h

`CCNS(=O)(=O)c1ccccc1Nc1nc(Nc2ccc(N3CCC(N4CCN(C)CC4)CC3)c(OC)c2)ncc1NC(=O)c1cc(OC)cc(OC)c1` gave a CL greater than 600 mL/min/kg.

In the case of `COc1cc(CCc2cnc(Nc3ccc(N4CCC(N5CCN(C)CC5)CC4)c(OC)c3)nc2)cc(OC)c1`, the CL is reported as 227 mL/min/kg.

Test: cells
Settings: Homo sapiens, NIH3T3, 120 h

First: CCNS(=O)(=O)c1ccccc1Nc1nc(Nc2ccc(N3CCC(N4CCN(C)CC4)CC3)c(OC)c2)ncc1NC(=O)c1cc(OC)cc(OC)c1
Second: CCNS(=O)(=O)c1ccccc1Nc1nc(Nc2ccc(N3CCC(N4CCN(C)CC4)CC3)c(OC)c2)ncc1CCc1cc(OC)cc(OC)c1
The IC50 of the first is 2.9-fold higher: 99 nM for the first, 34 nM for the second. The second is the more potent here.

Test: in vivo
Settings: ICR, mouse, plasma, po, 30 mg/kg

Compared with `CCNS(=O)(=O)c1ccccc1Nc1nc(Nc2ccc(N3CCC(N4CCN(C)CC4)CC3)c(OC)c2)ncc1NC(=O)c1cc(OC)cc(OC)c1`, `COc1cc(CCc2cnc(Nc3ccc(N4CCC(N5CCN(C)CC5)CC4)c(OC)c3)nc2)cc(OC)c1` is 11-fold higher in concentration at 6 h: 98.2 nM for the first, 1120 nM for the second.

Test: in vitro
Settings: PAMPA, pH 7.4

`CCNS(=O)(=O)c1ccccc1Nc1nc(Nc2ccc(N3CCC(N4CCN(C)CC4)CC3)c(OC)c2)ncc1NC(=O)c1cc(OC)cc(OC)c1` and `CCNS(=O)(=O)c1ccccc1Nc1nc(Nc2ccc(N3CCC(N4CCN(C)CC4)CC3)c(OC)c2)ncc1CCc1cc(OC)cc(OC)c1` are within 1.5-fold of each other in Papp at 2 h: 1.4 ×10⁻⁶ cm/s for the first, 1.8 ×10⁻⁶ cm/s for the second.

`COc1cc(CCc2cnc(Nc3ccc(N4CCC(N5CCN(C)CC5)CC4)c(OC)c3)nc2)cc(OC)c1` and `COc1cc(CNc2cnc(Nc3ccc(N4CCC(N5CCN(C)CC5)CC4)c(OC)c3)nc2)cc(OC)c1` are within 1.5-fold of each other in Papp at 2 h: 15.1 ×10⁻⁶ cm/s for the first, 18.1 ×10⁻⁶ cm/s for the second.

First: COc1cc(OC)cc(C(=O)Nc2cnc(Nc3ccc(N4CCC(N5CCN(C)CC5)CC4)c(OC)c3)nc2)c1
Second: COc1cc(OC)cc(C(=O)N(C)c2cnc(Nc3ccc(N4CCC(N5CCN(C)CC5)CC4)c(OC)c3)nc2)c1
The Papp at 2 h of the first is lower: less than 2.9 ×10⁻⁶ cm/s for the first, 3.7 ×10⁻⁶ cm/s for the second.

First: COc1cc(OC)cc(C(=O)Nc2cnc(Nc3ccc(N4CCC(N5CCN(C)CC5)CC4)c(OC)c3)nc2NCCS(C)(=O)=O)c1
Second: COc1cc(OC)cc(C(=O)Nc2cnc(Nc3ccc(N4CCC(N5CCN(C)CC5)CC4)c(OC)c3)nc2Nc2ccccc2)c1
The Papp at 2 h of the first is lower: less than 0.2 ×10⁻⁶ cm/s for the first, 0.4 ×10⁻⁶ cm/s for the second.

`COc1cc(CCc2cnc(Nc3ccc(N4CCC(N5CCN(C)CC5)CC4)c(OC)c3)nc2)c(F)c(OC)c1` and `COc1cc(Nc2ncc(CCc3c(F)c(OC)cc(OC)c3Cl)cn2)ccc1N1CCC(N2CCN(C)CC2)CC1` are within 1.5-fold of each other in Papp at 2 h: 24.4 ×10⁻⁶ cm/s for the first, 19.4 ×10⁻⁶ cm/s for the second.

Compared with `COc1cc(Nc2ncc(CCc3c(Cl)c(OC)cc(OC)c3Cl)cn2)ccc1N1CCC(N2CCN(C)CC2)CC1`, `COc1cc(OC)cc(OCc2cnc(Nc3ccc(N4CCC(N5CCN(C)CC5)CC4)c(OC)c3)nc2)c1` is higher in Papp at 2 h: 18.7 ×10⁻⁶ cm/s for the first, greater than 30 ×10⁻⁶ cm/s for the second.

With `COc1cc(COc2cnc(Nc3ccc(N4CCC(N5CCN(C)CC5)CC4)c(OC)c3)nc2)cc(OC)c1` the Papp at 2 h was 18.5 ×10⁻⁶ cm/s.

Test: physchem
Settings: JP2 fluid, pH 6.8

`CCNS(=O)(=O)c1ccccc1Nc1nc(Nc2ccc(N3CCC(N4CCN(C)CC4)CC3)c(OC)c2)ncc1NC(=O)c1cc(OC)cc(OC)c1` and `CCNS(=O)(=O)c1ccccc1Nc1nc(Nc2ccc(N3CCC(N4CCN(C)CC4)CC3)c(OC)c2)ncc1CCc1cc(OC)cc(OC)c1` cannot be ordered by solubility at 20 h, 10000 µM: less than 1 µM for the first, less than 1 µM for the second.

`COc1cc(CCc2cnc(Nc3ccc(N4CCC(N5CCN(C)CC5)CC4)c(OC)c3)nc2)cc(OC)c1` and `COc1cc(CNc2cnc(Nc3ccc(N4CCC(N5CCN(C)CC5)CC4)c(OC)c3)nc2)cc(OC)c1` cannot be ordered by solubility at 20 h, 10000 µM: no less than 100 µM for the first, no less than 100 µM for the second.

`COc1cc(OC)cc(C(=O)Nc2cnc(Nc3ccc(N4CCC(N5CCN(C)CC5)CC4)c(OC)c3)nc2)c1` and `COc1cc(OC)cc(C(=O)N(C)c2cnc(Nc3ccc(N4CCC(N5CCN(C)CC5)CC4)c(OC)c3)nc2)c1` cannot be ordered by solubility at 20 h, 10000 µM: no less than 100 µM for the first, no less than 100 µM for the second.

Going from `COc1cc(OC)cc(C(=O)Nc2cnc(Nc3ccc(N4CCC(N5CCN(C)CC5)CC4)c(OC)c3)nc2NCCS(C)(=O)=O)c1` to `COc1cc(OC)cc(C(=O)Nc2cnc(Nc3ccc(N4CCC(N5CCN(C)CC5)CC4)c(OC)c3)nc2Nc2ccccc2)c1`, the solubility at 20 h, 10000 µM falls from no less than 100 µM to 36 µM (≈ 23.5 µg/mL).

First: COc1cc(CCc2cnc(Nc3ccc(N4CCC(N5CCN(C)CC5)CC4)c(OC)c3)nc2)c(F)c(OC)c1
Second: COc1cc(Nc2ncc(CCc3c(F)c(OC)cc(OC)c3Cl)cn2)ccc1N1CCC(N2CCN(C)CC2)CC1
The solubility at 20 h, 10000 µM of the first is higher: no less than 100 µM for the first, 12 µM (≈ 7.19 µg/mL) for the second.

Going from `COc1cc(Nc2ncc(CCc3c(Cl)c(OC)cc(OC)c3Cl)cn2)ccc1N1CCC(N2CCN(C)CC2)CC1` to `COc1cc(OC)cc(OCc2cnc(Nc3ccc(N4CCC(N5CCN(C)CC5)CC4)c(OC)c3)nc2)c1`, the solubility at 20 h, 10000 µM rises from 5 µM (≈ 3.08 µg/mL) to no less than 100 µM.

`COc1cc(COc2cnc(Nc3ccc(N4CCC(N5CCN(C)CC5)CC4)c(OC)c3)nc2)cc(OC)c1` gave a solubility at 20 h, 10000 µM of no less than 100 µM.

Test: physchem
Settings: buffer, pH 7.4

`CCNS(=O)(=O)c1ccccc1Nc1nc(Nc2ccc(N3CCC(N4CCN(C)CC4)CC3)c(OC)c2)ncc1NC(=O)c1cc(OC)cc(OC)c1` and `CCNS(=O)(=O)c1ccccc1Nc1nc(Nc2ccc(N3CCC(N4CCN(C)CC4)CC3)c(OC)c2)ncc1CCc1cc(OC)cc(OC)c1` cannot be ordered by logD: greater than 3.9 for the first, greater than 4.8 for the second.

Compared with `COc1cc(CCc2cnc(Nc3ccc(N4CCC(N5CCN(C)CC5)CC4)c(OC)c3)nc2)cc(OC)c1`, `COc1cc(CNc2cnc(Nc3ccc(N4CCC(N5CCN(C)CC5)CC4)c(OC)c3)nc2)cc(OC)c1` is lower in logD: 3.5 for the first, 2.9 for the second.

First: COc1cc(OC)cc(C(=O)Nc2cnc(Nc3ccc(N4CCC(N5CCN(C)CC5)CC4)c(OC)c3)nc2)c1
Second: COc1cc(OC)cc(C(=O)N(C)c2cnc(Nc3ccc(N4CCC(N5CCN(C)CC5)CC4)c(OC)c3)nc2)c1
The logD of the first is higher: 2.8 for the first, 1.8 for the second.

Compared with `COc1cc(OC)cc(C(=O)Nc2cnc(Nc3ccc(N4CCC(N5CCN(C)CC5)CC4)c(OC)c3)nc2NCCS(C)(=O)=O)c1`, `COc1cc(OC)cc(C(=O)Nc2cnc(Nc3ccc(N4CCC(N5CCN(C)CC5)CC4)c(OC)c3)nc2Nc2ccccc2)c1` is higher in logD: 1.8 for the first, 3.7 for the second.

Compared with `COc1cc(CCc2cnc(Nc3ccc(N4CCC(N5CCN(C)CC5)CC4)c(OC)c3)nc2)c(F)c(OC)c1`, `COc1cc(Nc2ncc(CCc3c(F)c(OC)cc(OC)c3Cl)cn2)ccc1N1CCC(N2CCN(C)CC2)CC1` is higher in logD: 3.2 for the first, 3.5 for the second.

Going from `COc1cc(Nc2ncc(CCc3c(Cl)c(OC)cc(OC)c3Cl)cn2)ccc1N1CCC(N2CCN(C)CC2)CC1` to `COc1cc(OC)cc(OCc2cnc(Nc3ccc(N4CCC(N5CCN(C)CC5)CC4)c(OC)c3)nc2)c1`, the logD falls from 4.4 to 3.4.

For `COc1cc(COc2cnc(Nc3ccc(N4CCC(N5CCN(C)CC5)CC4)c(OC)c3)nc2)cc(OC)c1`, the logD was 3.2.

Test: animal or person
Settings: Mus musculus, Balb/c, NIH3T3, po, 6 h, read-out: INH

In the case of `COc1cc(CCc2cnc(Nc3ccc(N4CCC(N5CCN(C)CC5)CC4)c(OC)c3)nc2)cc(OC)c1`, the inhibition in vivo at 30 mg/kg is reported as 21%.
